Measured values: US20120029045A1, “METHOD FOR TREATING PORT WINE STAINS” (SHANGHAI FUDAN-ZHANGJIANG BIO-PHARMACEUTICAL CO., LTD., priority 2010, published 2012)

Test system: port wine stain lesion
Assay: PDT for PWS, therapeutic effect assessment
Type: in vivo, human
Description: The effectiveness of PWS treatment with […] is categorized as being Excellent (I), Good (II), Effective (III) or Ineffective (IV). […] [table] A solution of 1 ml saline was injected in the superficial vein (e.g. median cubital vein) of patients to ensure no liquid leaked into tissues adjacent to the blood vessels into which the injection was made. At the same site, HMME was injected intravenously for 20 minutes with a constant flow rate by using an infusion pump. The doses applied were 2.5 mg/kg body weight or 5.0 mg/kg body weight. Next, 2-4 ml of saline solution was again injected to prevent the drugs from aggregating locally. Irradiation with KTP532 laser was then applied to the patient's lesion site 0-10 minutes after the start of injection, for a total duration of irradiation of either 20 minutes (denoted as the 20 min group), or 30 minutes (denoted as the 30 minute group). […] When irradiation was started immediately after the start of injection, the overlap between the injection and irradiation was about 20 minutes, when irradiation started 5 minutes after the start of injection, the overlap between drug injection and light irradiation was approximately 15 minutes, and when irradiation was started 10 minutes after the start of injection, the overlap was about 10 minutes. The therapeutic results were measured 8 weeks after the treatment. A dose of 5.0 mg/kg body weight of the poryphin based drug was injected, total irradiation durations were 20 min and 30 min respectively, and the effects and adverse effects were assessed. In this example doses of 2.5 and 5.0 mg/kg body weight respectively, were applied, the patient was irradiated for 20 min, and the therapeutic effects and the adverse effects were assessed.

[1] = 5.0 mg/kg, irradiation 20 min, 8 weeks after treatment
[2] = 5.0 mg/kg, irradiation 30 min, 8 weeks after treatment
[3] = Part B, 2.5 mg/kg group, irradiated 20 min, 8 weeks after treatment
[4] = Part B, 2.5 mg/kg group, irradiated 20 min, 8 weeks after treatment, 2.5 mg/kg
[5] = Part B, 5.0 mg/kg group, irradiated 20 min, 8 weeks after treatment
[6] = Part B, Purple type PWS, 2.5 mg/kg group, irradiated 20 min
[7] = Part B, Purple type PWS, 5.0 mg/kg group, irradiated 20 min
[8] = Part B, Red type PWS, 2.5 mg/kg group, irradiated 20 min
[9] = Part B, Red type PWS, 5.0 mg/kg group, irradiated 20 min
[10] = Part B, Thickening type PWS, 2.5 mg/kg group, irradiated 20 min
[11] = Part B, Thickening type PWS, 5.0 mg/kg group, irradiated 20 min
[12] = Purple type PWS, 5.0 mg/kg, irradiation 20 min
[13] = Purple type PWS, 5.0 mg/kg, irradiation 30 min
[14] = Red type PWS, 5.0 mg/kg, irradiation 20 min
[15] = Red type PWS, 5.0 mg/kg, irradiation 30 min
[16] = Thickening type PWS, 5.0 mg/kg, irradiation 20 min
[17] = Thickening type PWS, 5.0 mg/kg, irradiation 30 min

For hematoporphyrin monomethyl ether [HMME], the “Excellent (cases)” value [1] was 2, the Excellent rate % [1] was 10.0% and the “Good (cases)” value [1] was 9. For the same substance, the “Ineffective (cases)” value [1] was 4, the “Moderate (cases)” value [1] was 5 and the Response rate % [1] was 80.0%. The “Significant response rate %” value [1] was 55.0%, the “Excellent (cases)” value [2] was 7 and the Excellent rate % [2] was 36.8%. For the same substance, the “Good (cases)” value [2] was 8, the “Ineffective (cases)” value [2] was 1 and the “Moderate (cases)” value [2] was 3. The Response rate % [2] was 94.7%, the “Significant response rate %” value [2] was 78.9% and the “Excellent (cases)” value [3] was 0. For the same substance, the “Good (cases)” value [3] was 1, the “Ineffective (cases)” value [3] was 24 and the “Moderate (cases)” value [3] was 15. The “Significant response rate %” value [3] was 2.5%, the Excellent rate % [4] was 0% and the Response rate % [4] was 40%. For the same substance, the “Excellent (cases)” value [5] was 2, the Excellent rate % [5] was 5.0% and the “Good (cases)” value [5] was 14. The “Ineffective (cases)” value [5] was 10, the “Moderate (cases)” value [5] was 14 and the Response rate % [5] was 75.0%. For the same substance, the “Significant response rate %” value [5] was 40.0%, the “Excellent (cases)” value [6] was 0 and the Excellent rate % [6] was 0.0%. The “Good (cases)” value [6] was 0, the “Ineffective (cases)” value [6] was 14 and the “Moderate (cases)” value [6] was 3. For the same substance, the Response rate % [6] was 17.6%, the “Significant response rate %” value [6] was 0.0% and the “Excellent (cases)” value [7] was 0. For the same substance, the Excellent rate % [7] was 0.0%, the “Good (cases)” value [7] was 7 and the “Ineffective (cases)” value [7] was 8. The “Moderate (cases)” value [7] was 9, the Response rate % [7] was 66.7% and the “Significant response rate %” value [7] was 29.2%. For the same substance, the “Excellent (cases)” value [8] was 0, the Excellent rate % [8] was 0.0% and the “Good (cases)” value [8] was 1. The “Ineffective (cases)” value [8] was 7, the “Moderate (cases)” value [8] was 8 and the Response rate % [8] was 56.3%. For the same substance, the “Significant response rate %” value [8] was 6.3%, the “Excellent (cases)” value [9] was 2 and the Excellent rate % [9] was 14.3%. The “Good (cases)” value [9] was 7, the “Ineffective (cases)” value [9] was 1 and the “Moderate (cases)” value [9] was 4. For the same substance, the Response rate % [9] was 92.9%, the “Significant response rate %” value [9] was 64.3% and the “Excellent (cases)” value [10] was 0. For the same substance, the Excellent rate % [10] was 0/7, the “Good (cases)” value [10] was 0 and the “Ineffective (cases)” value [10] was 3. For the same substance, the “Moderate (cases)” value [10] was 4, the Response rate % [10] was 4/7 and the “Significant response rate %” value [10] was 0/7. For the same substance, the “Excellent (cases)” value [11] was 0, the Excellent rate % [11] was 0/2 and the “Good (cases)” value [11] was 0. For the same substance, the “Ineffective (cases)” value [11] was 1, the “Moderate (cases)” value [11] was 1 and the Response rate % [11] was 1/2. For the same substance, the “Significant response rate %” value [11] was 0/2, the “Excellent (cases)” value [12] was 0 and the Excellent rate % [12] was 0/0. For the same substance, the “Good (cases)” value [12] was 2, the “Ineffective (cases)” value [12] was 1 and the “Moderate (cases)” value [12] was 3. For the same substance, the Response rate % [12] was 5/6, the “Significant response rate %” value [12] was 2/6 and the “Excellent (cases)” value [13] was 1. The Excellent rate % [13] was 1/8, the “Good (cases)” value [13] was 5 and the “Ineffective (cases)” value [13] was 0. For the same substance, the “Moderate (cases)” value [13] was 2, the Response rate % [13] was 8/8 and the “Significant response rate %” value [13] was 6/8. The “Excellent (cases)” value [14] was 2, the Excellent rate % [14] was 2/11 and the “Good (cases)” value [14] was 7. For the same substance, the “Ineffective (cases)” value [14] was 0, the “Moderate (cases)” value [14] was 2 and the Response rate % [14] was 11/11. For the same substance, the “Significant response rate %” value [14] was 9/11, the “Excellent (cases)” value [15] was 6 and the Excellent rate % [15] was 6/10. The “Good (cases)” value [15] was 2, the “Ineffective (cases)” value [15] was 1 and the “Moderate (cases)” value [15] was 1. The Response rate % [15] was 9/10, the “Significant response rate %” value [15] was 8/10 and the “Excellent (cases)” value [16] was 0. For the same substance, the Excellent rate % [16] was 0/0, the “Good (cases)” value [16] was 0 and the “Ineffective (cases)” value [16] was 3. The “Moderate (cases)” value [16] was 0, the Response rate % [16] was 0/0 and the “Significant response rate %” value [16] was 0/0. For the same substance, the “Excellent (cases)” value [17] was 0, the Excellent rate % [17] was 0/0 and the “Good (cases)” value [17] was 1. For the same substance, the “Ineffective (cases)” value [17] was 0, the “Moderate (cases)” value [17] was 0 and the Response rate % [17] was 1/1. For the same substance, the “Significant response rate %” value [17] was 1/1.
